Measured values reported in paper PMC7792611, “The Delta-Specific Opioid Glycopeptide BBI-11008: CNS Penetration and Behavioral Analysis in a Preclinical Model of Levodopa-Induced Dyskinesia” (International Journal of Molecular Sciences, 2020).
“And” between values parts separate entries of the source, which are not always exact repeats. Equal values may be shown once. “Also recorded” adds a separate entry of the source. Read-outs that look alike come from different tables or passages of the source. Non-standard residues stand in square brackets, D forms with d. Residues, ends and D or L forms follow the SMILES beside them. *: point of attachment. βGlc = OC[C@H]1O[C@@H](*)[C@H](O)[C@@H](O)[C@@H]1O; Nle = CCCC[C@H](N)C(=O)O

Tests used:
[1] = In vivo microdialysis in the dorsolateral striatum with LC-MS; conditions: 10 mg/kg i.p., rat
Procedure: Adult male Sprague–Dawley rats (Harlan, Indianapolis, IN, USA) weighing between 250 and 350 g were used for all experiments (n = 6). Rats were housed in a temperature and humidity-controlled room with 12 h light/dark cycles with food and water available ad libitum. All animals were treated as approved by the University of Michigan Unit for Laboratory Animal Medicine (Protocol: 08516; approval date: 4 April 2011) and in accordance with the National Institute of Health (NIH) Guidelines for the Care and Use of Laboratory Animals. The number of animals used, and their suffering were minimized.
We performed in vivo microdialysis in the rat DLS and applied LC-MS analytical techniques to quantify brain concentrations of the deltorphin analogue BBI-11008, following systemic treatment, and of endogenous leu-enkephalin levels both before and after treatment. These experiments were performed in awake, freely moving rats, implanted with microdialysis probes in the DLS 24 h prior to the experiments. The animals were fully recovered, their wounds healed, and the probes were fixed in place with dental cement. The details of the microdialysis procedure to detect glycopeptides in the rat striatum has been described in detail in [27], with the following minor modifications: the concentric microdialysis probes were slightly larger at 3 mm, and the microdialysis probes were flushed at a lower flow rate of 0.7 µL/min.

[2] = biological target: T1, human DOR (Homo sapiens, UniProt P41143); test: Opioid receptor binding, inhibition of [3H]naltrindole binding to CHO cell membranes; conditions: for % Inhibition at DOR: 0.2 nM [3H]naltrindole
T1 construct: expressed in transfected cells
T1 sequence (P41143 whole entry): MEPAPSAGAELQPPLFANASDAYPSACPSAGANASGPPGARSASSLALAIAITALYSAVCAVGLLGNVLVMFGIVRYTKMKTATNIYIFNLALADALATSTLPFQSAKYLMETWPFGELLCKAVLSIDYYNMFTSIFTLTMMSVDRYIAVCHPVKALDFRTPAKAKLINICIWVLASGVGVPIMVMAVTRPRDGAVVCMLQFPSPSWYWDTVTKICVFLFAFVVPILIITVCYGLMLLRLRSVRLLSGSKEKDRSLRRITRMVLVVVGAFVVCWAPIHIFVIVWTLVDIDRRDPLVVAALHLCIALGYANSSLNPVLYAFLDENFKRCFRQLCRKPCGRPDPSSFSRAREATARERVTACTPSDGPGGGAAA

[3] = biological target: T2, human MOR (Homo sapiens, UniProt P35372); test: Opioid receptor binding, inhibition of [3H]DAMGO binding to CHO cell membranes; conditions: for % Inhibition at MOR: 0.25 nM [3H]DAMGO
T2 construct: expressed in transfected cells
T2 sequence (P35372 whole entry): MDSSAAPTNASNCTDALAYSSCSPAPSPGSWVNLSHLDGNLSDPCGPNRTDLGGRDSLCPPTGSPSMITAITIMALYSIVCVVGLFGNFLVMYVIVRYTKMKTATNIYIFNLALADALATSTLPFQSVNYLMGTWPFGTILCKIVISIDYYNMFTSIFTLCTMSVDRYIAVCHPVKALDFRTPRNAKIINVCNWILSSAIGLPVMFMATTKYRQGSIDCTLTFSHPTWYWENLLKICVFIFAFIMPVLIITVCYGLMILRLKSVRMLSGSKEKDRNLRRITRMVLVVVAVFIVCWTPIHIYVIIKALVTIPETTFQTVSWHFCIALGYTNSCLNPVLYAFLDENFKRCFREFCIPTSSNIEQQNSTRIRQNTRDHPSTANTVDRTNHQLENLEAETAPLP

[4] = biological target: T3, human KOR (Homo sapiens, UniProt P41145); test: Opioid receptor binding, [3H]U69593 binding to CHO cell membranes; conditions: 1 nM [3H]U69593; cells print % values
T3 construct: expressed in transfected cells
T3 sequence (P41145 whole entry): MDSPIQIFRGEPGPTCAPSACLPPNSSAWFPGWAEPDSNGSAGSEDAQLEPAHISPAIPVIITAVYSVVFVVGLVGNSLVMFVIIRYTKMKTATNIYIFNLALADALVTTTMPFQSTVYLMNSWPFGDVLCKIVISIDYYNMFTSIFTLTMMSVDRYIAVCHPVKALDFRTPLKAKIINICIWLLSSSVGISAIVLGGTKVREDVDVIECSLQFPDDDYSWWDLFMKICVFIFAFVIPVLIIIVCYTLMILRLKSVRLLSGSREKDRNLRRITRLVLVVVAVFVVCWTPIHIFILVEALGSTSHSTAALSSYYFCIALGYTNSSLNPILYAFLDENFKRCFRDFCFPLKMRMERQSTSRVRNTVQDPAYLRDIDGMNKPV
Procedure: Opioid Receptor Binding: Opioid receptor binding assays were performed as previously described. Membranes from CHO cells stably expressing either the human DOR, MOR, or KOR were used in the binding experiments. […] [^3H]U69593 at a concentration of 1 nM was used to measure binding to the KOR. […] BBI-11008 was chosen for further study.

[5] = test system: L-DOPA-induced dyskinesia (LID) models; conditions: cited from earlier work
[6] = test system: L-DOPA-induced abnormal involuntary movements in 6-OHDA-lesioned rats; test: L-DOPA-induced dyskinesia model in unilateral 6-OHDA-lesioned rats, AIMs scoring; assay type: in vivo, rat; conditions: MK-801 0.3 mg/kg i.p., 25 min prior to L-DOPA
Procedure: Male Sprague-Dawley rats (250 g; Harlan, Indianapolis, IN, USA), were housed in a temperature and humidity-controlled room with 12 h light/dark cycles with food and water available ad libitum. All animals were treated as approved by the Institutional Animal Care and Use Committee at the University of Arizona (Protocol number: 10-204; amendment approval date: 20 August 2012) and in accordance with the NIH Guidelines for the Care and Use of Laboratory Animals. The number of animals used, and their suffering were minimized.
All surgical procedures were performed as published in our prior work unless otherwise stated. […]
Rats showing ipsiversive rotations were selected and treated daily (i.p.) for 3 weeks with a combination of L-DOPA (7 mg/kg) and benserazide (14 mg/kg, MilliporeSigma). […] Baseline L-DOPA-induced LAO and locomotor AIMs (mean ± SEM) were determined over 3 testing sessions, before testing of the compounds was begun. […]
L-DOPA-induced AIMs were scored by an experimentally blinded investigator according to [57]. […] In order to quantify the severity of the AIMs, rats were observed individually in their standard cages every 20th min between 20 and 180 min after an injection of L-DOPA. […]

[7] = test system: tail-withdrawal assay; conditions: mice, intravenous administration; ref Bilsky and Polt, personal communication; cited from earlier work

Compound | % Inhibition at DOR ([2]; peptide 100 nM) [%] | % Inhibition at DOR ([2]; peptide 1 µM) [%] | % Inhibition at MOR ([3]; peptide 100 nM) [%] | % Inhibition at MOR ([3]; peptide 1 µM) [%] | other results
CCCC[C@H](NC(=O)[C@H](CCC(=O)O)NC(=O)[C@H](Cc1ccccc1)NC(=O)[C@@H](C)NC(=O)[C@@H](N)Cc1ccc(O)cc1)C(=O)N[C@@H](CCCC)C(=O)N[C@H](C(N)=O)[C@@H](C)O[C@@H]1O[C@H](CO)[C@@H](O)[C@H](O)[C@H]1O [BBI-11008, H2N-YaFE-Nle-Nle-T-(β-D-Glc)] (H-Y[dA]FE[Nle][Nle]T(βGlc)-NH2) |  |  |  |  | peak BBI-11008 level relative to baseline endogenous leu-enkephalin [1]: 10 fold; peak BBI-11008 concentration in dorsolateral striatum dialysate ([1]; 10 min post-injection): 150 pM and > 150 pM; level at time molar at 1 h ([1]; male, Sprague-Dawley, in vivo, ip, 10 mg/kg, 60 min, read-out: striatal BBI-11008 concentration at 60 min post-injection (mean)): ~0.037 nM
CCCC[C@H](NC(=O)[C@H](CCC(=O)O)NC(=O)[C@H](Cc1ccccc1)NC(=O)[C@@H](C)NC(=O)[C@@H](N)Cc1ccc(O)cc1)C(=O)N[C@@H](CCCC)C(=O)N[C@H](C(N)=O)[C@@H](C)O [BBI-11009, H2N-YaFE-Nle-Nle-T] (H-Y[dA]FE[Nle][Nle]T-NH2) |  |  |  |  | Ki [2]: 0.011 µM; Ki [3]: 0.51 µM; % Inhibition at KOR [4]: 3.7%
CCN(CC)C(=O)c1ccc([C@H](c2cccc(O)c2)N2C[C@@H](C)N(Cc3cccc(F)c3)C[C@@H]2C)cc1 [DPI-289] |  |  |  |  | effect on LID ([5]; rodent and non-human primate LID models): anti-dyskinetic
C[C@]12N[C@H](Cc3ccccc31)c1ccccc12 [MK-801, Dizocilpine] |  |  |  |  | effect on L-DOPA-induced LAO AIMs [6]: reduced levodopa-induced LAO AIMs; also recorded: does reduce LAO-AIMs; also recorded: efficiently blocked LAO AIMs; ipsiversive pro-Parkinsonian locomotor activity [6]: worsened PD symptoms; also recorded: induces ipsiversive pro-Parkinsonian locomotor activity; also recorded: caused ipsiversive turns
CNC1(c2ccccc2Cl)CCCCC1=O (stereo not drawn) [ketamine] |  |  |  |  | effect on LID and Parkinsonism ([5]; sub-anesthetic treatment, rodent models): anti-dyskinetic and anti-Parkinsonian
Oc1ccc2c3c1O[C@H]1[C@@H](O)CC[C@@]4(O)[C@@H](C2)N(CC2CCC2)CC[C@]314 [nalbuphine] |  |  |  |  | effect on LID ([5]; dyskinetic non-human LID primates): reduce LID
CTAP |  |  |  |  | effect on LID ([5]; highly-selective MOR antagonists): did not reduce LID
H2N-YaFHLA-S(β-D-Glc) [BBI-11002] | 55 | 77 | 82 | 97 | 
H2N-YaFHLAT-(β-D-Glc) [BBI-11004] | 61 | 76 | 88 | 98 | 
H2N-YmFHLM-S(β-D-Glc) [BBI-11001] | 72 | 84 | 63 | 89 | 
H2N-YmFHLMT-(β-D-Glc) [BBI-11003] | 75 | 83 | 57 | 89 | 
Lactomorphin [MMP-2200] |  |  |  |  | effect on MK-801-induced pro-Parkinsonian activity ([5]; co-administration with MK-801, rodent LID model): attenuated the pro-Parkinsonian activity of MK-801
YaFEVVG-CONH2 [deltorphin] |  |  |  |  | antinociceptive effect in the tail-withdrawal assay [7]: lacks this activity
